The record followed here is patent publication US20140005163A1 (NOVARTIS AG, priority 2010, published 2014).

A value given as a limit tells only on which side of the number the result lay.

One experiment addresses T1, PI3K beta (Homo sapiens, UniProt P42338).
T1 construct: for the full-length p110-b subunit are generated and fused by overlapping PCR; p85(iSH2) fusion partner (see partner chain) (N); His tag (C); made in house; host or cells: baculovirus; Tn5 (Trichoplusia ni) or TiniPro insect cells
As to the kind of experiment: PI3K beta kinase assay (Kinase-Glo luminescence). The format is biochemical. The procedure, abridged: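 IC50 is derived by four-parameter logistic curve fitting of Kinase-Glo luminescence, which measures ATP left after a 60 min room-temperature reaction. Conditions are 25 nM His-tagged p85(iSH2)-p110β, 1 μM ATP and 10 μg/mL bovine liver phosphatidylinositol.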

For a further experiment, the target named is T2, PI3K delta (Homo sapiens, UniProt O00329).
T2 construct: for the full-length p110-d subunit are generated and fused by overlapping PCR; p85(iSH2) fusion partner (see partner chain) (N); His tag (C); made in house; host or cells: baculovirus; Tn5 (Trichoplusia ni) or TiniPro insect cells
As to the kind of experiment: PI3K delta kinase assay (Kinase-Glo luminescence). Type of experiment: biochemical. An outline of the steps: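 ATP depletion was measured by Kinase-Glo luminescence after a 60-minute room-temperature reaction containing 1 μM ATP, 10 μg/mL PI and 10 nM His-tagged p85(iSH2)-linker-p110δ (BV-1060). Buffer: Tris pH 7.5, 3 mM MgCl2, 50 mM NaCl, 0.05% CHAPS, 1 mM DTT. IC50 values came from four-parameter fits over eight concentrations.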

For experiment [1], the system named is PKB Ser473 phosphorylation in Rat1-myr-HA-p110 alpha cells. The experiment can be described thus: Reverse protein array assay, PKB Ser473 phosphorylation in Rat1-myr-p110 alpha cells. The format is cell-based. The settings on record: 0.5 h, pAkt Ser473, 30 minutes compound incubation, read-out: p-PKB IC50. An outline of the steps:
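Compound exposure lasted 30 min in Rat1 cells bearing membrane-targeted HA-p110 isoforms, using 8 serial concentrations. Arrayed lysates, each spotted at four dilutions, gave relative fluorescence signals for phospho-Ser473 PKB.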

T1 sequence (P42338 with tags, fused parts or gaps limits assumed): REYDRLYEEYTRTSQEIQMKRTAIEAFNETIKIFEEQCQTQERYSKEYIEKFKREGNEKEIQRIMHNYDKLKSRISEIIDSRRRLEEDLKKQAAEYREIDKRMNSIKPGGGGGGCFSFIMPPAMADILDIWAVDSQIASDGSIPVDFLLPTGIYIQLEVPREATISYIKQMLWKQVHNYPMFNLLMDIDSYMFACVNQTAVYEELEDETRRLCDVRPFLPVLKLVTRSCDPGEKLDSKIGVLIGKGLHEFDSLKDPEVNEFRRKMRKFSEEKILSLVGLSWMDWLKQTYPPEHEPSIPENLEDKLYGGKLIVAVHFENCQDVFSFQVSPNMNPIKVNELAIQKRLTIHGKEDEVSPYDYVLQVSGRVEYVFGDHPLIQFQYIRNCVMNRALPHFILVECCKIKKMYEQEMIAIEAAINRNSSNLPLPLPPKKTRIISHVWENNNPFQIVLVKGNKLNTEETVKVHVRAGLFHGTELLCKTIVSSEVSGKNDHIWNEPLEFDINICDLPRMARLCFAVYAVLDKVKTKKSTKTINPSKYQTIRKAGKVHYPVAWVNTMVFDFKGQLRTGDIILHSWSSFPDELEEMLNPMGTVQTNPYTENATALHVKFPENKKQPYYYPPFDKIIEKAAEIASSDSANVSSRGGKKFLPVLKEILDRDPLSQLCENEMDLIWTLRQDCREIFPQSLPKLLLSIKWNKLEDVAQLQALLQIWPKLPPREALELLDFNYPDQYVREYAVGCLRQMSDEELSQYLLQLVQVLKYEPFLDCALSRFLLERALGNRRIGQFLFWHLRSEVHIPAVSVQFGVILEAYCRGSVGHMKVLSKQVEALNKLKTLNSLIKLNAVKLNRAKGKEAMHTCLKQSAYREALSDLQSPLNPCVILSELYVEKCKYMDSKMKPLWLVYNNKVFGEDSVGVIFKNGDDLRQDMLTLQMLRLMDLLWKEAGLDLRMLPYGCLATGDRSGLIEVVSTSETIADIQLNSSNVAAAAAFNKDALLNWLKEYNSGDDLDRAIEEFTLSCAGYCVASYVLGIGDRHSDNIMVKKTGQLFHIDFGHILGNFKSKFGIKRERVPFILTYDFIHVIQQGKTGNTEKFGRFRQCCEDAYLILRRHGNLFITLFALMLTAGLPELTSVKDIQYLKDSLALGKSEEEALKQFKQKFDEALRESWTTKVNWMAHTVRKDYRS
T2 sequence (O00329 with tags, fused parts or gaps limits assumed): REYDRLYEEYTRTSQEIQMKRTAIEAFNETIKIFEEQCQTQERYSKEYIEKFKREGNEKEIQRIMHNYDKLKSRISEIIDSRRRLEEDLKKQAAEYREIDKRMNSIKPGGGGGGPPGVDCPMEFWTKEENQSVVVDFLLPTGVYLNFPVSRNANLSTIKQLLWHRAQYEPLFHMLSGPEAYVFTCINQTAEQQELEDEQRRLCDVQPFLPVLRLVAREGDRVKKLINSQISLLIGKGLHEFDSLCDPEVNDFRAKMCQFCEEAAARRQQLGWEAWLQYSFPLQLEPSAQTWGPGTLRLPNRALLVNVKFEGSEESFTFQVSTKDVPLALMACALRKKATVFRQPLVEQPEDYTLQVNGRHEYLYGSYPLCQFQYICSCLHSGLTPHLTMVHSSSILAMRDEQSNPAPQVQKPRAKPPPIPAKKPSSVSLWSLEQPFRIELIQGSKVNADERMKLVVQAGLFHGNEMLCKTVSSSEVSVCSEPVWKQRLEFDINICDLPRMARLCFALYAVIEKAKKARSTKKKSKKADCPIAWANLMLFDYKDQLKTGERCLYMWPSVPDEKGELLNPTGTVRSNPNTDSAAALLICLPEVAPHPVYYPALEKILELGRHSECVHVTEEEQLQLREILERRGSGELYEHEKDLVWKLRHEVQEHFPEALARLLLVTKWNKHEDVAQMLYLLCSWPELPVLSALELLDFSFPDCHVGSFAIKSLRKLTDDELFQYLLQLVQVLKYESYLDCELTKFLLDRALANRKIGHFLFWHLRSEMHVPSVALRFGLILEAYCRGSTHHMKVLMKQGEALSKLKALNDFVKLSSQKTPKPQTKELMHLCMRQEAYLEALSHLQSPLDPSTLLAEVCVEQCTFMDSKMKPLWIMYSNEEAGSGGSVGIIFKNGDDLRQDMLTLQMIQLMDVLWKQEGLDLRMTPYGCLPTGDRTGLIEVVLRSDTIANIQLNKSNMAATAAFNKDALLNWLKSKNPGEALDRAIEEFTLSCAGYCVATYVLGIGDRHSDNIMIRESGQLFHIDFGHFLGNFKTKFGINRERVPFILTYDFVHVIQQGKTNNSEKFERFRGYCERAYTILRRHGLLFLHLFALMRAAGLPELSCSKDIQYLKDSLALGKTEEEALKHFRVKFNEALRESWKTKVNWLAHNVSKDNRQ

Usually IC50 stands for the concentration that inhibits the measured activity by half. Turning to `Cc1nn(C)cc1-n1c(=O)n(C)c2cnc3ccc(-c4ccc(-c5ncc[nH]5)cc4)cc3c21` [Example 77, 1-(1,3-Dimethyl-1H-pyrazol-4-yl)-8-[4-(1H-imidazol-2-yl)-phenyl]-3-methyl-1,3-dihydro-imidazo[4,5-c]quinolin-2-one], the IC50 at PI3K beta was 24 nM; at PI3K delta, 8 nM; in experiment [1] it was 7 nM.

Turning to `Cc1nn(C)cc1-n1c(=O)n(C)c2cnc3ccc(-c4cncc(OC5CCC5)c4)cc3c21` [Example 60.1, 8-(5-Cyclobutoxy-pyridin-3-yl)-1-(1,3-dimethyl-1H-pyrazol-4-yl)-3-methyl-1,3-dihydro-imidazo[4,5-c]quinolin-2-one], the concentration for half-maximal inhibition (IC50) on PI3K beta is 3 nM; on PI3K delta, under 3 nM; in experiment [1] it was under 5 nM.

As to `Cc1nn(C)c(C)c1-n1c(=O)n(C)c2cnc3ccc(-c4cnc(Cl)c(N)c4)cc3c21` [Example 152.3, 8-(5-Amino-6-chloro-pyridin-3-yl)-3-methyl-1-(1,3,5-trimethyl-1H-pyrazol-4-yl)-1,3-dihydro-imidazo[4,5-c]quinolin-2-one], the half-inhibitory concentration (IC50) at PI3K beta was found to be 79 nM; on PI3K delta, 7 nM; in experiment [1] it was 123 nM.

As for `Cc1nn(C)cc1-n1c(=O)n(C)c2cnc3ccc(-c4cncc(N(C)C5CCC5)c4)cc3c21` [Example 174, 8-[5-(Cyclobutyl-methyl-amino)-pyridin-3-yl]-1-(1,3-dimethyl-1H-pyrazol-4-yl)-3-methyl-1,3-dihydro-imidazo[4,5-c]quinolin-2-one], the IC50 at PI3K beta is 36 nM; on PI3K delta it was 23 nM; in experiment [1], 9 nM.

Regarding `CCOCc1cc(-c2ccc3ncc4c(c3c2)n(-c2cn(C)nc2Cl)c(=O)n4C)cnc1N` [Example 166.4, 8-(6-Amino-5-ethoxymethyl-pyridin-3-yl)-1-(3-chloro-1-methyl-1H-pyrazol-4-yl)-3-methyl-1,3-dihydro-imidazo[4,5-c]quinolin-2-one], the 50% inhibitory concentration (IC50) is 10 nM on PI3K beta, under 3 nM on PI3K delta and 5 nM in experiment [1].

With `Cc1cc(-n2c(=O)n(C)c3cnc4ccc(-c5cnc(C)c(O)c5)cc4c32)n(C)n1` [Example 185.2, 1-(2,5-Dimethyl-2H-pyrazol-3-yl)-8-(5-hydroxy-6-methyl-pyridin-3-yl)-3-methyl-1,3-dihydro-imidazo[4,5-c]quinolin-2-one], the 50% inhibitory concentration (IC50) at PI3K beta was 56 nM; on PI3K delta it was 6 nM; in experiment [1], 38 nM.

As for `CNc1ccc(-c2ccc3ncc4c(c3c2)n(-c2cn(C(C)C)nc2C)c(=S)n4C)cn1` [Example 241, 1-(1-isopropyl-3-methyl-1H-pyrazol-4-yl)-3-methyl-8-(6-(methylamino)pyridin-3-yl)-1H-imidazo[4,5-c]quinoline-2(3H)-thione], the values for the IC50 (at PI3K beta; at PI3K delta; in experiment [1]) were 184 nM, 147 nM and under 5 nM, respectively.

Turning to `Cc1cc(-n2c(=O)n(C)c3cnc4ccc(-c5cnc(F)c(N)c5)cc4c32)n(C)n1` [Example 149.3, 8-(5-Amino-6-fluoro-pyridin-3-yl)-1-(2,5-dimethyl-2H-pyrazol-3-yl)-3-methyl-1,3-dihydro-imidazo[4,5-c]quinolin-2-one], the half-maximal inhibitory concentration (IC50) was 202 nM on PI3K beta, 38 nM on PI3K delta and 49 nM in experiment [1].

`CN(C)c1ccc(-c2ccc3ncc4c(c3c2)n(-c2cn(C)nc2Cl)c(=O)n4C)cn1` [Example 4.9, 1-(3-Chloro-1-methyl-1H-pyrazol-4-yl)-8-(6-dimethylamino-pyridin-3-yl)-3-methyl-1,3-dihydro-imidazo[4,5-c]quinolin-2-one]: the IC50 is 59 nM at PI3K beta, 12 nM at PI3K delta and 5 nM in experiment [1].

Regarding `Cc1nn(C)cc1-n1c(=O)n(C)c2cnc3ccc(-c4cccc(OC(C)C)c4)cc3c21` [Example 82, 1-(1,3-Dimethyl-1H-pyrazol-4-yl)-8-(3-isopropoxy-phenyl)-3-methyl-1,3-dihydro-imidazo[4,5-c]quinolin-2-one], the half-maximal inhibitory concentration (IC50) is 154 nM on PI3K beta, 77 nM on PI3K delta and 44 nM in experiment [1].

`CN(C)c1ncc(-c2ccc3ncc4c(c3c2)n(-c2cn(C)nc2Cl)c(=O)n4C)cn1` [Example 6.3, 1-(3-Chloro-1-methyl-1H-pyrazol-4-yl)-8-(2-dimethylamino-pyrimidin-5-yl)-3-methyl-1,3-dihydro-imidazo[4,5-c]quinolin-2-one]: the IC50 at PI3K beta is 51 nM; at PI3K delta, 7 nM; in experiment [1] it was 9 nM.
